For the first experiment, the system named is Human Jurkat T-cells (clone N). Kind of experiment: Jurkat T-cell activation (anti-TCR, CD69 upregulation).
Conditions: not given
In kind it is cell-based. The gist of the method: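 Jurkat cells in RPMI + 5% FBS preincubated with compound 1 h at 37 °C, then stimulated with anti-TCR C305 at 500 ng/ml for 20 h. CD69 surface expression stained with anti-CD69-APC and read by flow cytometry; IC50 versus solvent-only control.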
`CC(O)CNC(=O)COc1cccc(Nc2ncc(F)c(Nc3ccc4c(c3)NCCO4)n2)c1` (stereo not shown) [Compound R909251] had an IC50 of 0.664 µM. That is a sub-micromolar value.
`COc1cc(C(=O)NS(=O)(=O)c2ccccc2C)ccc1Cn1ncc2ccc(Nc3ncc(F)c(Nc4cccc(O)c4)n3)cc21` [Compound R935324] yielded a half-maximal inhibitory concentration (IC50) above 10 µM.
`CNC(=O)COc1cccc(Nc2ncc(F)c(Nc3cccc(C(=NO)c4ccccc4)c3)n2)c1` [Compound R950374]: the half-inhibitory concentration (IC50) is 1.65 µM.
The same measure, in the same setting: for `O=C(CNc1cccc(Nc2ncc(F)c(Nc3cccc(NCCO)c3)n2)c1)N1CCOCC1` [Compound R950236] the value was 9.69 µM; for `Fc1cnc(Nc2ccc3cn[nH]c3c2)nc1Nc1ccc2c(c1)OCCO2` [Compound R935190], 3.47 µM; for `CNC(=O)COc1cccc(Nc2ncc(F)c(Nc3cccc(Cl)c3)n2)c1` [Compound R926832], 2.99 µM.
The same measure, in the same setting: for `COC(=O)Cn1ncc2ccc(Nc3ncc(F)c(Nc4ccc5c(c4)OCCO5)n3)cc21` [Compound R935208] the value was 2.88 µM; for `CNC(=O)COc1cccc(Nc2ncc(F)c(Nc3cccc(C(C)(C)C)c3)n2)c1` [Compound R940276], 2.53 µM; for `CCOC(=O)COc1cccc(Nc2ncc(F)c(Nc3ccc4c(c3)OCCN4)n2)c1` [Compound R909266], 13 µM.
In the case of `O=C(COc1cccc(Nc2ncc(F)c(Nc3ccc4c(c3)OCCO4)n2)c1)N(CCO)CCO` [Compound R926781], half-maximal inhibition (IC50) required 9.81 µM.
The same measure, in the same setting: for `CC1(C)Oc2cc(Nc3nc(Cl)ncc3F)cnc2NC1=O` [Compound R940344] the value was 7.74 µM; for `NC(=O)COc1ccc(Nc2nc(Nc3cccc(O)c3)ncc2F)cc1` [Compound R945063], 6.04 µM; for `CNC(=O)COc1cccc(Nc2ncc(F)c(Nc3cnc4c(c3)OCC(=O)N4)n2)c1` [Compound R945242], 1.71 µM.
Still for that read-out and setting: the value for `O=C(CNc1cccc(Nc2ncc(F)c(Nc3cccc(NCCO)c3)n2)c1)NCCO` [Compound R950231] was 8.69 µM; that for `CNC(=O)COc1cccc(Nc2ncc(F)c(Nc3cccc(C(N)=O)c3)n2)c1` [Compound R940299] was 24.9 µM; that for `CCOC(=O)COc1ccc(Nc2ncc(C(F)(F)F)c(Nc3ccc(OCC(=O)OCC)cc3)n2)cc1` [Compound R925862] was above 10 µM.
In turn, `Oc1cccc(Nc2nc(Nc3ccc(OCc4nnn[nH]4)cc3)ncc2C(F)(F)F)c1` [Compound R920846] displayed an IC50 of 10.4 µM.
As to `COC(=O)COc1cccc(Nc2ncc(F)c(Nc3ccc4c(c3)C(OC)CCO4)n2)c1` (stereo not shown) [Compound R950295], the half-inhibitory concentration (IC50) was found to be 4.71 µM. This IC50 is about 2.2-fold lower than that of the molecule before.
Molecule `CON=C(N)COc1ccc(Nc2ncc(F)c(Nc3ccc(OCC(N)=NOC)cc3)n2)cc1` [Compound R945096] displayed an IC50 of 2.8 µM.
Still for that read-out and setting: for `CCOC(=O)COc1cccc(Nc2nc(Nc3ccc4c(c3)OCCO4)ncc2F)c1` [Compound R926774] the value was 12.7 µM; for `Fc1cnc(Nc2ccc3c(c2)CCO3)nc1Nc1ccc2c(c1)CCO2` [Compound R909237], above 10 µM.
The molecule `CN(CCO)C(=O)c1cc2cc(Nc3ncc(F)c(Nc4cccc(O)c4)n3)ccc2o1` [Compound R926725] yielded an IC50 of 3.37 µM.
Same read-out and setting: the value for `Cc1nc(COc2cccc(Nc3nc(Nc4ccc5c(c4)OCCO5)ncc3F)c2)no1` [Compound R945137] was 5.43 µM.
Same read-out and setting: for `CNC(=O)COc1cccc(Nc2ncc(F)c(Nc3cccc(N)c3)n2)c1` [Compound R950263] the value was 1.91 µM.
On to `CNC(=O)COc1cccc(Nc2ncc(F)c(Nc3ccc4c(c3)N(C)CCO4)n2)c1` [Compound R909259], for which the IC50 was above 10 µM.
Same read-out and setting: the value for `Fc1cnc(NCc2ccc3c(c2)OCO3)nc1NCc1ccc2c(c1)OCO2` [Compound R925770] was above 10 µM.
Turning to `CNC(=O)COc1cccc(Nc2ncc(F)c(Nc3ccc4c(c3)C(=O)CCC4)n2)c1` [Compound R926947], 13.3 µM corresponded to half-maximal inhibition (IC50).
On the same count and under the same terms, the value for `CCOC(=O)COc1cccc(Nc2ncc(C(=O)OCC)c(Nc3ccc4c(c3)OC(F)(F)C(F)(F)O4)n2)c1` [Compound R926799] was above 10 µM; that for `N#CCOc1ccc(Nc2ncc(F)c(Nc3ccc4c(c3)OCCO4)n2)cc1` [Compound R926480] was above 10 µM; that for `CNC(=O)COc1cccc(Nc2ncc(F)c(Nc3ccc4c(c3)OCCN4C)n2)c1` [Compound R908705] was 5.88 µM.
Consider `COC(=O)c1ccc(Cn2cc3ccc(Nc4ncc(F)c(Nc5cccc(O)c5)n4)cc3n2)c(OC)c1` [Compound R935337], for which the IC50 turned out to be 2.54 µM.
Same read-out and setting: for `CCOC(=O)CNC(=O)Oc1cccc(Nc2nc(Nc3cccc(OCC(=O)NC)c3)ncc2F)c1` [Compound R926918] the value was 4.69 µM; for `N#CCOc1ccc(Nc2ncc(F)c(Nc3cccc(O)c3)n2)cc1` [Compound R945070], above 10 µM.
The same measure, in the same setting: for `NC(=O)Cn1c(=O)oc2ccc(Nc3ncc(F)c(Nc4ccc5c(c4)OCCO5)n3)cc21` [Compound R926847] the value was 11.8 µM; for `Cc1cnc(Nc2ccc(OCc3nnn[nH]3)cc2)nc1Nc1cccc(O)c1` [Compound R920820], above 10 µM; for `O=C(COc1cccc(Nc2ncc(F)c(Nc3ccc4c(c3)NCCO4)n2)c1)NCCCO` [Compound R909252], 0.655 µM.
The same measure, in the same setting: the value for `OCCn1ncc2cc(Nc3nc(Nc4ccc5c(c4)OCCO5)ncc3F)ccc21` [Compound R935258] was 6.26 µM; that for `COC(=O)COc1cccc(Nc2ncc(F)c(Nc3cc(C)c(O)c(C)c3)n2)c1` [Compound R945139] was 13.9 µM; that for `CNC(=O)COc1cccc(Nc2ncc(F)c(Nc3ccc4[nH]ccc4c3)n2)c1` [Compound R926931] was 2.93 µM.
Turning to `COc1cc(-c2ccccc2)c(C)cc1Nc1ncc(F)c(Nc2cc(C)c(-c3ccccc3)cc2OC)n1` [Compound R926401], the IC50 is above 10 µM.
Same read-out and setting: the value for `C=CCNC(=O)Nc1c(Nc2ccc(OCC(=O)OCC)cc2)nc(Nc2ccc(OCC(=O)OCC)cc2)nc1C(=O)OCC` [Compound R926585] was above 10 µM.
The molecule `CCOC(=O)COc1cccc(Nc2ncc(F)c(Nc3ccc(O)c(C(=O)O)c3)n2)c1` [Compound R950290] returned an IC50 above 10 µM.
Same read-out and setting: for `CNC(=O)COc1cccc(Nc2ncc(F)c(Nc3cccc(NC)c3)n2)c1` [Compound R950267] the value was 1.99 µM; for `CCOC(=O)COc1cccc(Nc2ncc(F)c(Nc3ccc4c(c3)C(=O)OC4)n2)c1` [Compound R940285], above 10 µM.
Still for that read-out and setting: for `COc1cc(-c2ccccc2)c(C)cc1Nc1ncc(C)c(Nc2cc(C)c(-c3ccccc3)cc2OC)n1` [Compound R935003] the value was above 10 µM; for `OCCn1ncc2ccc(Nc3ncc(F)c(Nc4ccc5c(c4)OCCO5)n3)cc21` [Compound R935248], 1.9 µM; for `COC(=O)c1ccc(Cn2cc3ccc(Nc4ncc(F)c(Nc5ccc6c(c5)OCCO6)n4)cc3n2)c(OC)c1` [Compound R935336], 2.88 µM.

The experiment is the same for the next values; noted with them: Homo sapiens.
With `COc1ccc([N+](=O)[O-])cc1Nc1ncc(F)c(Nc2cc([N+](=O)[O-])ccc2OC)n1` [Compound R950151], the IC50 amounted to 14.2 µM.

Staying with this experiment, now noted: Homo sapiens, Jurkat.
For `Oc1cccc(Nc2ncc(F)c(Nc3cccc(C4=NN(c5ccccc5)CO4)c3)n2)c1` [Compound R926866], the IC50 is above 10 µM.
Same read-out and setting: the value for `Cc1ccc(F)c(Nc2ncc(F)c(Nc3ccc4c(c3)OCCO4)n2)c1` [Compound R926897] was above 10 µM.
The molecule `Cc1cc(CNc2ncc(F)c(Nc3cccc(O)c3)n2)c(C)o1` [Compound R945162] registered an IC50 above 10 µM.
Still for that read-out and setting: for `CNC(=O)c1cccc(Nc2ncc(F)c(Nc3cccc(O)c3)n2)c1` [Compound R926936] the value was 7.88 µM; for `CCOC(=O)CNc1nc(NCC(=O)OCC)c([N+](=O)[O-])c(C(=O)OCC)n1` [Compound R925864], 19.1 µM.
In turn, `CCOC(=O)CNc1nc(NCC(=O)OCC)c(N)c(C(=O)OCC)n1` [Compound R925865] gave an IC50 above 10 µM.
In turn, `N#Cc1ccc(Nc2ncc(F)c(Nc3ccc(C#N)cc3)n2)cc1` [Compound R945057] showed an IC50 above 10 µM.
As to `CC(C)(CO)c1ccc(Nc2nc(Nc3ccc(OCCO)cc3)ncc2F)cc1` [Compound R935158], the midpoint of inhibition, the IC50, lay at 2.47 µM. In other words, the single-digit micromolar range.
Molecule `Oc1cccc(Nc2ncc(F)c(Nc3ccc4c(c3)C=CCC4)n2)c1` [Compound R926943] had a half-inhibitory concentration (IC50) of 18.5 µM.
`Oc1ccc(Nc2ncc(F)c(Nc3ccc(O)c(C(F)(F)F)c3)n2)cc1C(F)(F)F` [Compound R950093] registered a 50% inhibitory concentration (IC50) of 11.3 µM.
The molecule `Fc1cnc(NCc2ccc3c(c2)CCO3)nc1Nc1ccc2c(c1)OCCO2` [Compound R950205] yielded an IC50 of 24.5 µM.
The same measure, in the same setting: the value for `O=C1COc2cc(Nc3ncc(F)c(Nc4cccc(O)c4)n3)ccc2N1` [Compound R908699] was 1.03 µM; that for `OCCN(CCO)c1cccc(Nc2ncc(F)c(Nc3ccc4c(c3)OCCO4)n2)c1` [Compound R950209] was 3.8 µM.
Same read-out and setting: for `CC(C)Oc1ccc(Nc2nc(Nc3ccc(C(C)(C)CO)cc3)ncc2F)cc1` [Compound R935151] the value was 1.96 µM; for `Fc1ccc(Nc2ncc(F)c(Nc3ccc4c(c3)OCCO4)n2)cc1Cl` [Compound R926218], above 10 µM; for `Oc1cccc(Nc2nc(Nc3ccc4c(c3)CCO4)ncc2F)c1` [Compound R909250], above 10 µM.
On to `COc1ccc(Nc2nc(Nc3cccc(O)c3)ncc2F)c(OC)n1` [Compound R926887], for which half-maximal inhibition (IC50) required 5.92 µM.
The molecule `Oc1cccc(Nc2ncc(-c3ccccc3)c(Nc3cccc(O)c3)n2)c1` [Compound R925783] gave an IC50 above 10 µM.
On the same count and under the same terms, for `c1ccc(-c2cc(Nc3ccc4c(c3)OCCO4)nc(Nc3ccc4c(c3)OCCO4)n2)cc1` [Compound R925811] the value was above 10 µM; for `OCCOc1ccc(Nc2ncc(F)c(Nc3cccc(O)c3)n2)cc1` [Compound R926376], above 10 µM; for `COc1ccc(Nc2ncc(F)c(Nc3ccc4c(c3)OCCO4)n2)cc1OC` [Compound R926212], 0.56 µM.
`CC(C)(C)c1ccc(Nc2ncc(F)c(Nc3ccc(C(C)(C)C)cc3)n2)cc1` [Compound R926222] showed an IC50 above 10 µM.

Values taken from patent US8158621B2, “Methods of treating or preventing autoimmune diseases with 2,4-pyrimidinediamine compounds” (Rigel Pharmaceuticals, Inc., priority 2002, dated 2012).
